Assay results: article PMC12013085, “Peptides targeting RAB11A–FIP2 complex inhibit HPIV3, RSV, and IAV replication as broad-spectrum antivirals” (Cell & Bioscience, 2025)
Where a SMILES comes first, the peptide text is derived from it.

What was measured:
IAV = assay type: cell-based, influenza A virus; conditions: IAV MOI 0.01, 5 μM, 24 hpi, TCID50
HPIV3, RSV, and IAV = assay type: cell-based
HPIV3 VLPs in 293T cells = assay: HPIV3 VLP budding and plasma membrane fraction assay, WB; assay type: cell-based; conditions: 293T cells, compared to Tat-treated control
Procedure: (§1) Data are presented as means ± SEM
The cell lysates were prepared as described for the Western blot (WB) analysis. The supernatant was harvested and clarified by centrifugation at 12,000×g for 5 min. Subsequently, the supernatant was pelleted through a 20% sucrose cushion at 4 °C at 35,000 rpm for 2 h. The VLP pellets obtained were resuspended in PBS and boiled with SDS-PAGE loading buffer at 100 °C for 10 min. Both the cell lysates and the supernatants were then subjected to WB analysis.
293T cells, cultured in 6-cm dishes, were transfected with the indicated plasmids for 24 h. Cell collection was performed through centrifugation at 500×g for 5 min at 4 °C. Subsequently, cytosol, organelle membrane, and plasma membrane-associated proteins were extracted sequentially using the MinuteTM plasma membrane protein isolation and cell fractionation kit (INVENT), following the manufacturer's instructions.

HPIV3HA-P vRNP = assay: vRNP distribution by immunofluorescence in HPIV3HA-P-infected HeLa cells; assay type: cell-based; conditions: HPIV3HA-P MOI = 0.01, 5 μM peptide, 24 h
Procedure: as §1
HeLa cells were cultured on coverslips in 24-well plates overnight and subjected to transfection or/and virus infection as indicated. Following this, cells were fixed with 4% paraformaldehyde for 20 min at room temperature (RT) and permeabilized with 0.2% Triton X-100 for 20 min at RT. Subsequently, cells were blocked with 3% bovine serum albumin (BSA) in PBS for 30 min at RT. The cells were then incubated with primary antibodies diluted in 1% BSA, followed by incubation with secondary antibodies, also diluted in 1% BSA. Nuclei were counterstained with DAPI, and plasma membrane were stained with Dil. Confocal microscopy images were acquired using a Leica confocal microscope.

EV71 = assay type: cell-based, Enterovirus 71; conditions: HeLa cells, EV71 MOI = 0.1, escalating concentrations, 24 hpi, TCID50
[1] = In vivo biodistribution of Cy5-YT-DRI, IVIS imaging; conditions: BALB/c mice, i.p. administration
Procedure: Female BALB/c mice, aged 6–8 weeks, were randomly divided into two groups. One group received an intraperitoneal injection of PBS (n = 3) for background fluorescence measurement, while the other group received 5 mg/kg Cy5-YT-DRI (n = 3). Bioluminescence readings were performed at various time points using the IVIS Lumina K Series III. Following imaging, mice were euthanized, and the indicated tissues were collected for further evaluation of fluorescence values. The average radiance is expressed as the sum of photons per second from each pixel inside the region of interest per the number of pixels (p s^−1 cm^−2 sr^−1).
Supplementary file 13578_2025_1384_MOESM7_ESM.tif: Supplementary Material 7. Fig. S7. In Vivo biodistribution of Cy5-YT-DRI. (A) Mice were treated with PBS or Cy5-YT-DRI (5mg/kg) via intraperitoneal injection. Bioluminescence readings were conducted at different time points using the IVIS Lumina K Series III for ventral (the upper row) and dorsal (the lower row) views, and the average radiance is expressed as the sum of the photons per second from each pixel inside the region of interest per the number of pixels (p s−1 cm−2 sr−1). (B-F) Representative images of the brains(B), lungs (C), livers (D), kidneys (E), and hearts (F) from the PBS-treated or Cy5-YT-DRI-treated mice. (G) Normalized bioluminescence results are expressed as means ± SEM from at least two experiments. […]

[2] = system: HPIV3 clinical strain VR93; assay type: in vivo, nude BALB/c mice
RSV [3] = assay type: in vivo, nude BALB/c mice
WSN virus = assay type: in vivo, BALB/c mice
[4] = In vivo drug toxicity study; conditions: male ICR mice, 5 or 10 mg/kg i.p. for consecutive 3 days
Procedure: The 6–8 weeks old male ICR male mice, were randomly assigned into three groups and each group had 5 mice. The mice were i.p. injected with 5 mg/kg YT-DRI, 10 mg/kg YT-DRI, or the same volume of PBS for consecutive 3 days. During the experiment, body weight was recorded for 15 days. At the end of the experiment, the mice were perfused, and tissue samples of heart, liver, lung, and kidney were collected for histopathological examination.
Supplementary file 13578_2025_1384_MOESM8_ESM.tif: Supplementary Material 8. Fig. S8. In vivo safety of YT-DRI. (A) Body weight changes of the 6-week-old ICR mice treated with PBS or 5 mg/kg or 10 mg/kg of YT-DRI at the indicated time points. (B) Hematoxylin and eosin staining of various tissues under an optical microscope for histopathological morphology analysis at 14 days after i.p. administration. Scale bar, 200 μm.

RSV [5] = system: RSV
[6] = system: HeLa, A549, MK2, MDCK and HEp-2 cells; conditions: CCK-8, 24 h treatment, in the tested cell lines (HeLa, A549, MK2, MDCK, HEp-2)
RAB11A–FIP2 complex = assay: In vitro co-IP of mixed 293T lysates (FIP2, N protein, RAB11A)
Procedure: 293 T cells were individually transfected with plasmids encoding FIP2, the N protein, and RAB11A for 36 h, after which their lysates were mixed for in vitro co-IP analysis. […] All experiments were independently replicated at least twice with consistent results. Statistical significance (*p < 0.05) was determined by two-sided unpaired t-test. Data are presented as means ± SEM
293T cells were transfected with the indicated plasmids for 36 h, and cell lysates were prepared using lysis buffer as described in the Western blot (WB) analysis section. The supernatants were collected and incubated with anti-Flag or anti-Myc magnetic beads (MCE) following the manufacturer’s instructions for co-IP. The immunoprecipitated proteins were then analyzed via WB.

SMILES: CC[C@@H](C)[C@@H](NC(=O)[C@@H](CC(=O)O)NC(=O)[C@@H](CC(N)=O)NC(=O)[C@@H](CC(C)C)NC(=O)[C@@H](CC(C)C)NC(=O)[C@H](NC(=O)[C@@H](CCCNC(=N)N)NC(=O)[C@H](NC(=O)[C@@H](CCSC)NC(=O)[C@@H](CCC(=O)O)NC(=O)[C@@H](CCC(=O)O)NC(=O)[C@H](NC(=O)[C@@H](CCCNC(=N)N)NC(=O)[C@@H](CCCCN)NC(=O)[C@@H](CCCCN)NC(=O)[C@@H](CCCNC(=N)N)NC(=O)[C@@H](CCCNC(=N)N)NC(=O)[C@@H](CCC(N)=O)NC(=O)[C@@H](CCCNC(=N)N)NC(=O)[C@@H](CCCNC(=N)N)NC(=O)[C@H](N)CCCNC(=N)N)[C@H](C)O)C(C)C)C(C)C)C(=O)N[C@H](Cc1ccc(O)cc1)C(=O)O [YT-DRI] (HELM PEPTIDE1{[dR].[dR].[dR].[dQ].[dR].[dR].[dK].[dK].[dR].[dT].[dE].[dE].[dM].[dV].[dR].[dV].[dL].[dL].[dN].[dD].[dI].[dY]}$$$$V2.0; N-terminus and C-terminus assumed)
- antiviral effect on IAV infection in RAB11A-KO HeLa cells (IAV): no significant antiviral effect
- replication of HPIV3, RSV, and IAV in coinfection (viral RNA accumulation) (HPIV3, RSV, and IAV): markedly impeded the replication
- levels of N, P, and M proteins in the PM fraction and VLPs (HPIV3 VLPs in 293T cells): reduced levels
- vRNP localization (HPIV3HA-P vRNP): formation of large aggregates of vRNP in the cytoplasm
- EV71 replication, treated compared to untreated cells (EV71): no significant differences
- transport across the blood–brain barrier [1]: facilitated transport across the blood–brain barrier
- body weight loss, HPIV3-infected mice ([2]; 2 mg/kg i.p. once daily Day 0 to Day 2, vs PBS, n = 5): less weight loss
- lung histology, HPIV3 ([2]; 2 mg/kg i.p., 3 dpi, H&E, vs PBS): reduced lung inflammation
- viral RNA copies in the lung, HPIV3 ([2]; 2 mg/kg i.p., 3 dpi, RT-qPCR): significantly decreased
- infectious titers in the lung, HPIV3 ([2]; 2 mg/kg i.p., 3 dpi, TCID50): significantly decreased
- body weight loss, RSV-infected mice (RSV [3]; 2 mg/kg i.p. once daily Day 0 to Day 3, vs PBS, n = 5): reduced body weight loss
- lung histology, RSV (RSV [3]; 2 mg/kg i.p., 4 dpi, H&E): diminished lung tissue damage
- viral RNA copies in the lung, RSV (RSV [3]; 2 mg/kg i.p., 4 dpi, RT-qPCR): lower viral RNA copies
- infectious titers in the lung, RSV (RSV [3]; 2 mg/kg i.p., 4 dpi, TCID50): decreased infectious titers
- body weight loss, IAV (WSN)-infected mice (WSN virus; 2 mg/kg i.p. once daily Day 0 to Day 4): reduced body weight loss
- survival rate, lethal IAV (WSN) infection (WSN virus; 2 mg/kg i.p. once daily Day 0 to Day 4, observed until 14 dpi, n = 5): 80%
- viral RNA copies in the lungs, IAV (WSN) (WSN virus; 2 mg/kg i.p., 4 dpi, RT-qPCR, vs PBS): decreased viral RNA copies
- lung histology, IAV (WSN) (WSN virus; 2 mg/kg i.p., 4 dpi, vs PBS): milder lung inflammation
- acute toxicity: body weight ([4]; body weight recorded for 15 days, 5 mice per group): no significant changes
- acute toxicity: histopathological morphology ([4]; heart, liver, lung, kidney, H&E): no significant changes
- HPIV3 viral growth in WT HeLa cells (HPIV3): significant reduction in viral growth
- effect on HPIV3 in RAB11A-KO HeLa cells (HPIV3): moderate and statistically insignificant
- IC50 (HPIV3; 36 h): 940 nM
- SI (CC50/IC50), HPIV3, A549 (HPIV3; 36 h): > 263.16
- SI (CC50/IC50), HPIV3, HeLa (HPIV3; 36 h): > 159.57
- SI (CC50/IC50), HPIV3, MDCK (HPIV3; 36 h): > 102.74
- SI (CC50/IC50), RSV, A549 (RSV [5]; 2 h): > 405.41
- SI (CC50/IC50), RSV, HEp-2 (RSV [5]; 2 h): > 681.82
- SI (CC50/IC50), RSV, HeLa (RSV [5]; 2 h): > 220.59
- SI (CC50/IC50), RSV, MDCK (RSV [5]; 2 h): > 326.09
- antiviral effect on RSV infection in RAB11A-KO HeLa cells (RSV [5]; RSV MOI 0.1, 5 μM, 24 hpi, TCID50): no significant antiviral effect
- CC50 [6]: > 150000 nM
- N-RAB11A interaction (RAB11A–FIP2 complex): undetectable
- interaction between FIP2 and RAB11A (RAB11A–FIP2 complex; in contrast to control peptide Tat): significantly attenuated
